Source: patent publication US20240423927A1, “COMPOSITIONS AND METHODS FOR USE IN IMMUNOTHERAPY” (INSTITUT CURIE, priority 2021, published 2024)

Key:
[1] = system: tumor-specific CD8 and CD4 T cell responses (PBMCs); test: Ex vivo stimulation assay: IFN-γ ELISPOT of PBMCs stimulated with OVA and p15 peptides; assay type: in vivo, C57BL/6J mice; details: Example 1, four days after third s.c. injection, cGAMP-VLP 50 ng cGAMP s.c., Imatinib 10 mg/kg i.p.
From the text: […] Mice were bled in the retro-orbital sinus and PBMCs were isolated from whole blood by lysing the red blood cells. […] Spots were developed using a mouse IFN-γ ELISPOT antibody (Diaclone) according to the manufacturer's instructions, and the number of spots enumerated using an ImmunoSpot analyzer.

MCA-OVA tumor [2] = test: Survival of treated MCA-OVA tumor-bearing mice; assay type: in vivo, C57BL/6J mice; details: Example 1; log-rank test; cGAMP-VLP 50 ng cGAMP s.c., Imatinib 10 mg/kg i.p.
MCA-OVA tumor [3] = test: Tumor growth monitoring in MCA-OVA tumor model; assay type: in vivo, C57BL/6J mice; details: Example 1; cGAMP-VLP 50 ng cGAMP s.c. three times, Imatinib 10 mg/kg i.p. days 6-10
STING [4] = molecular target: STING (Homo sapiens, UniProt Q86WV6); details: compared with cGAMP, reporter assays; cited from earlier work
STING [5] = details: comparative statement (hSTING vs mSTING; or vs cGAMP); cited from earlier work

STING (Homo sapiens, UniProt Q86WV6), sequence (Q86WV6 whole entry): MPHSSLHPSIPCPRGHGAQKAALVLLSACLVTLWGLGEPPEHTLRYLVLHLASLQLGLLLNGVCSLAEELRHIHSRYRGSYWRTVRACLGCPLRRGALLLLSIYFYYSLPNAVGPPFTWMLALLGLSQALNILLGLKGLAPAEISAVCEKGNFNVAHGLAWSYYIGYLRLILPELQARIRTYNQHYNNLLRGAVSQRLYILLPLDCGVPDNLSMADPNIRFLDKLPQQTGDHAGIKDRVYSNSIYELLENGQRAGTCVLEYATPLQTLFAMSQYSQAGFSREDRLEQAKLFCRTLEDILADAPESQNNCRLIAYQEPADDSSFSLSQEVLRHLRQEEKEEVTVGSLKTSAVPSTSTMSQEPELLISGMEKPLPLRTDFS

Compound: Cc1ccc(NC(=O)c2ccc(CN3CCN(C)CC3)cc2)cc1Nc1nccc(-c2cccnc2)n1 [Imatinib]
- Tumor-specific T cell responses in peripheral blood (IFN-γ ELISPOT) [1]: did not induce tumor-specific T cell responses compared to the PBS group
- Survival (death event: tumor size >2 cm^3) (MCA-OVA tumor [2]): did not show survival benefit compared to PBS treatment
- Tumor growth (MCA-OVA tumor [3]): no effect on the tumor growth compared to control group

Compound: COc1c(O)cc2oc3cc(O)c(CC=C(C)C)c(O)c3c(=O)c2c1CC=C(C)C [α-mangostin]
- Potency for inducing type I IFN (STING [4]): weaker potency for inducing type I IFN compared with cGAMP
- Affinity/binding to STING (STING [5]): higher affinity to human (h)STING than to mSTING

Compound: Diaminobenzimidazole
- Affinity/binding to STING (STING [5]): enhanced binding to STING and cellular function as compared to cGAMP
